Laboratory results reported in US11174233B1, “Anti-cancer compounds having oxazolone derivation” (King Abdulaziz University, priority 2019, dated 2021).

Experiments:
[1] = system: MCF-7 (breast) cancer cells; experiment: SRB cytotoxicity assay against MCF7; type: cell-based, human; conditions: 72 h treatment
Experimental: (§1) MCF-7 (breast) and PC3 (prostate) cancer cells were each grown in RPMI-1640 medium supplemented with 10% heat inactivated FBS, 50 units/mL of penicillin, and […] of streptomycin. The cultures were maintained at 37° C. in a humidified atmosphere containing 5% CO2. The cells were maintained as “monolayer culture” by serial sub-culturing.
(§2) Cytotoxicity was determined using SRB method as previously described by Skehan et al. [Skehan P.; Storeng R.; Scudiero D.; Monks A.; McMahon J.; al., V. D. e., New colorimetric cytotoxicity assay for anticancer drug screening. […] Exponentially growing cells were collected using 0.25% Trypsin-EDTA and seeded in 96-well plates at 1000-2000 cells/well in RPMI-1640 supplemented medium. After 24 h, cells were incubated for 72 h with various concentrations of the tested compounds. Following 72 h treatment, the cells would be fixed with 10% trichloroacetic acid for 1 h at 4° C. Wells were stained for 10 min at room temperature with 0.4% SRB dissolved in 1% acetic acid. The plates were air dried for 24 h and the dye was solubilized with Tris-HCl for 5 min on a shaker at 1600 rpm. The optical density (OD) of each well was measured spectrophotometrically at 564 nm with an ELISA microplate reader (ChroMate-4300, FL, USA). The IC50 values were calculated according to the equation for Boltzman sigmoidal concentration—response curve using the nonlinear regression fitting models (Graph Pad, Prism Version 5).

[2] = system: PC3 (prostate) cancer cells; experiment: SRB cytotoxicity assay against PC3; type: cell-based, human; conditions: 72 h treatment
Experimental: as §1, §2

Which results are given for CC(NC(=O)Cc1ccc(NC(=O)/C(=C\c2ccc(Cl)cc2)NC(=O)c2ccccc2)cc1)c1ccccc1 (stereo not shown) [KIM-2247V, (E)-N-(1-(4-chlorophenyl)-3-oxo-3-((4-(2-oxo-2-((1-phenylethyl)amino)ethyl)phenyl)amino)prop-1-en-2-yl)benzamide]?
IC50 ([1]; Homo sapiens): > 100 µM; IC50 ([2]; Homo sapiens): > 100 µM

For O=C(Cc1ccc(N2C(=O)/C(=C/c3ccccc3)N=C2c2ccccc2)cc1)NCc1ccccc1 [KIM-211C, (Z)—N-benzyl-2-(4-(4-benzylidene-5-oxo-2-phenyl-4,5-dihydro-1H-imidazol-1-yl)phenyl)acetamide], which melting point is on record?
The melting point was 218 to 219 °C.

Which IC50 ([1]; Homo sapiens) does the source give for O=C(Cc1ccc(NC(=O)C(=Cc2ccc(Cl)cc2)NC(=O)c2ccccc2)cc1)NCc1ccccc1 (stereo in doubt) [KIM-221V, (E)-N-(3-((4-(2-(benzylamino)-2-oxoethyl)phenyl)amino)-1-(4-chlorophenyl)-3-oxoprop-1-en-2-yl)benzamide] here?
The IC50 was 3.12 µM.

What about the IC50 ([2]; Homo sapiens) of the same molecule?
The IC50 was 4.08 µM.

Which IC50 ([1]; Homo sapiens) does the source give for O=C(Cc1ccc(NC(=O)/C(=C\c2ccc(Cl)cc2)NC(=O)c2ccccc2)cc1)NCCc1ccccc1 [KIM-2246V, (E)-N-(1-(4-chlorophenyl)-3-oxo-3-((4-(2-oxo-2-(phenethylamino)ethyl)phenyl)amino)prop-1-en-2-yl)benzamide] here?
The IC50 was > 100 µM.

What about the IC50 ([2]; Homo sapiens) of the same molecule?
The IC50 was > 100 µM.

What does the source list for O=C(Cc1ccc(NC(=O)/C(=C\c2ccc(Cl)cc2)NC(=O)c2ccccc2)cc1)Nc1ccccc1 [KIM-22101V, (E)-N-(1-(4-chlorophenyl)-3-oxo-3-((4-(2-oxo-2-(phenylamino)ethyl)phenyl)amino)prop-1-en-2-yl)benzamide]?
IC50 ([1]; Homo sapiens): > 100 µM; IC50 ([2]; Homo sapiens): > 100 µM

Which melting point does the source give for COc1cc(/C=C2\N=C(c3ccccc3)N(c3ccc(CC(=O)NCc4ccccc4)cc3)C2=O)ccc1O [KIM-231C, (Z)—N-benzyl-2-(4-(4-(4-hydroxy-3-methoxybenzylidene)-5-oxo-2-phenyl-4,5-dihydro-1H-imidazol-1-yl)phenyl)acetamide] here?
Its melting point is 109 to 112 °C.

With COc1ccc(CNC(=O)Cc2ccc(NC(=O)/C(=C\c3ccc(Cl)cc3)NC(=O)c3ccccc3)cc2)cc1 [KIM-2216V, (E)-N-(1-(4-chlorophenyl)-3-((4-(2-((4-methoxybenzyl)amino)-2-oxoethyl)phenyl)amino)-3-oxoprop-1-en-2-yl)benzamide] as the molecule, how does the IC50 ([1]; Homo sapiens) read?
Its IC50 is > 100 µM.

And the IC50 ([2]; Homo sapiens)?
The IC50 was > 100 µM.

With COc1ccc(/C=C(/NC(C)=O)C(=O)Nc2ccc(CC(=O)NCc3ccccc3)cc2)cc1 [KIM-161V, (E)-2-acetamido-N-(4-(2-(benzylamino)-2-oxoethyl)phenyl)-3-(4-methoxyphenyl) acrylamide] as the molecule, how does the IC50 [1] read?
Its IC50 is 44.3 µM.

What about the IC50 [2] of the same molecule?
The IC50 was 41.1 µM.

Which IC50 ([1]; Homo sapiens) does the source give for Cc1cc(F)ccc1/C=C(/NC(=O)c1ccccc1)C(=O)Nc1ccc(CC(=O)NCc2ccccc2)cc1 [KIM-2101V, (E)-N-(3-((4-(2-(benzylamino)-2-oxoethyl)phenyl)amino)-1-(4-fluoro-2-methylphenyl)-3-oxoprop-1-en-2-yl)benzamide] here?
The IC50 was > 100 µM.

What about the IC50 ([2]; Homo sapiens) of the same molecule?
The IC50 was > 100 µM.

With COc1cc(/C=C(/NC(=O)c2ccccc2)C(=O)Nc2ccc(CC(=O)NCc3ccccc3)cc2)ccc1O [KIM-231V, (E)-N-(3-((4-(2-(benzylamino)-2-oxoethyl)phenyl)amino)-1-(4-hydroxy-3-methoxyphenyl)-3-oxoprop-1-en-2-yl)benzamide] as the molecule, how does the IC50 ([1]; Homo sapiens) read?
Its IC50 is > 100 µM.

And the IC50 ([2]; Homo sapiens)?
Its IC50 is > 100 µM.

What does the source list for O=C(Cc1ccc(NC(=O)/C(=C\c2ccccc2)NC(=O)c2ccccc2)cc1)NCc1ccccc1 [KIM-211V, (E)-N-(3-((4-(2-(benzylamino)-2-oxoethyl)phenyl)amino)-3-oxo-1-phenylprop-1-en-2-yl) benzamide]?
IC50 ([1]; Homo sapiens): > 100 µM; IC50 ([2]; Homo sapiens): > 100 µM

For CC(=O)N/C(=C/c1ccccc1)C(=O)Nc1ccc(CC(=O)NCc2ccccc2)cc1 [KIM-111V, (E)-2-acetamido-N-(4-(2-(benzylamino)-2-oxoethyl)phenyl)-3-phenylacrylamide], which melting point is on record?
Its melting point is 197 °C.

What about the IC50 ([1]; Homo sapiens) of the same molecule?
Its IC50 is > 100 µM.

And the IC50 ([2]; Homo sapiens)?
Its IC50 is > 100 µM.

With COc1ccc(/C=C2\N=C(c3ccccc3)N(c3ccc(CC(=O)NCc4ccccc4)cc3)C2=O)cc1 [KIM-261C, (Z)—N-benzyl-2-(4-(4-(4-methoxybenzylidene)-5-oxo-2-phenyl-4,5-dihydro-1H-imidazol-1-yl)phenyl)acetamide] as the molecule, how does the melting point read?
The melting point was 193 °C.

For O=C(Cc1ccc(NC(=O)/C(=C\c2ccc(Cl)cc2)NC(=O)c2ccccc2)cc1)NCc1ccc(-c2ccccc2)cc1 [KIM-2249V, (E)-N-(3-((4-(2-(([1,1′-biphenyl]-4-ylmethyl)amino)-2-oxoethyl)phenyl)amino)-1-(4-chlorophenyl)-3-oxoprop-1-en-2-yl)benzamide], which IC50 ([1]; Homo sapiens) is on record?
Its IC50 is 87.5 µM.

What about the IC50 ([2]; Homo sapiens) of the same molecule?
The IC50 was 92.2 µM.

Which IC50 ([1]; Homo sapiens) does the source give for O=C(Cc1ccc(NC(=O)/C(=C\c2ccc(Cl)cc2)NC(=O)c2ccccc2)cc1)NCc1cccc(F)c1 [KIM-2250V, (E)-N-(1-(4-chlorophenyl)-3-((4-(2-((3-fluorobenzyl)amino)-2-oxoethyl)phenyl)amino)-3-oxoprop-1-en-2-yl)benzamide] here?
The IC50 was > 100 µM.

What about the IC50 ([2]; Homo sapiens) of the same molecule?
Its IC50 is > 100 µM.

With O=C(Cc1ccc(NC(=O)/C(=C\c2ccc(Cl)cc2)NC(=O)c2ccccc2)cc1)NCc1ccc(F)cc1 [KIM-2248V, (E)-N-(1-(4-chlorophenyl)-3-((4-(2-((4-fluorobenzyl)amino)-2-oxoethyl)phenyl)amino)-3-oxoprop-1-en-2-yl)benzamide] as the molecule, how does the IC50 ([1]; Homo sapiens) read?
Its IC50 is 89.6 µM.

And the IC50 ([2]; Homo sapiens)?
The IC50 was 85.1 µM.

For CC1=N/C(=C\c2ccccc2)C(=O)N1c1ccc(CC(=O)NCc2ccccc2)cc1 [KIM-111C, (Z)—N-benzyl-2-(4-(4-benzylidene-2-methyl-5-oxo-4,5-dihydro-1H-imidazol-1-yl)phenyl)acetamide], which melting point is on record?
The melting point was 164 to 165 °C.

What does the source list for O=C(Cc1ccc(NC(=O)/C(=C\c2ccc(Cl)cc2)NC(=O)c2ccccc2)cc1)NCc1ccco1 [KIM-2230V, (E)-N-(1-(4-chlorophenyl)-3-((4-(2-((furan-2-ylmethyl)amino)-2-oxoethyl)phenyl)amino)-3-oxoprop-1-en-2-yl)benzamide]?
IC50 ([1]; Homo sapiens): > 100 µM; IC50 ([2]; Homo sapiens): 97.8 µM

Which results are given for COc1ccc(/C=C(/NC(=O)c2ccccc2)C(=O)Nc2ccc(CC(=O)NCc3ccccc3)cc2)cc1 [KIM-261V, (E)-N-(3-((4-(2-(benzylamino)-2-oxoethyl)phenyl)amino)-1-(4-methoxyphenyl)-3-oxoprop-1-en-2-yl)benzamide]?
IC50 ([1]; Homo sapiens): > 100 µM; IC50 ([2]; Homo sapiens): > 100 µM

For O=C(Cc1ccc(N2C(=O)/C(=C/c3ccc(Cl)cc3)N=C2c2ccccc2)cc1)NCc1ccccc1 [KIM-221C, (Z)—N-benzyl-2-(4-(4-(4-chlorobenzylidene)-5-oxo-2-phenyl-4,5-dihydro-1H-imidazol-1-yl)phenyl)acetamide], which melting point is on record?
Its melting point is 218 to 220 °C.

With CN(Cc1ccccc1)C(=O)Cc1ccc(NC(=O)/C(=C\c2ccc(Cl)cc2)NC(=O)c2ccccc2)cc1 [KIM-2245V, (E)-N-(3-((4-(2-(benzyl(methyl)amino)-2-oxoethyl)phenyl)amino)-1-(4-chlorophenyl)-3-oxoprop-1-en-2-yl)benzamide] as the molecule, how does the IC50 ([1]; Homo sapiens) read?
Its IC50 is > 100 µM.

And the IC50 ([2]; Homo sapiens)?
Its IC50 is > 100 µM.

Which IC50 [1] does the source give for COc1cc(/C=C(/NC(C)=O)C(=O)Nc2ccc(CC(=O)NCc3ccccc3)cc2)ccc1O [KIM-131V, (E)-2-acetamido-N-(4-(2-(benzylamino)-2-oxoethyl)phenyl)-3-(4-hydroxy-3-methoxyphenyl) acrylamide] here?
The IC50 was 53.5 µM.

And the IC50 [2]?
The IC50 was 61.3 µM.

Which IC50 ([1]; Homo sapiens) does the source give for COc1cc(/C=C2\N=C(C)N(c3ccc(CC(=O)NCc4ccccc4)cc3)C2=O)ccc1O [KIM-131C, (Z)—N-benzyl-2-(4-(4-(4-hydroxy-3-methoxybenzylidene)-2-methyl-5-oxo-4,5-dihydro-1H-imidazol-1-yl)phenyl)acetamide] here?
Its IC50 is 9.48 µM.

What about the IC50 ([2]; Homo sapiens) of the same molecule?
Its IC50 is 5.83 µM.

For CC1=N/C(=C\c2ccc(Cl)cc2)C(=O)N1c1ccc(CC(=O)NCc2ccccc2)cc1 [KIM-121C, (Z)—N-benzyl-2-(4-(4-(4-chlorobenzylidene)-2-methyl-5-oxo-4,5-dihydro-1H-imidazol-1-yl)phenyl)acetamide], which melting point is on record?
The melting point was 209 to 211 °C.

What about the IC50 ([2]; Homo sapiens) of the same molecule?
The IC50 was 6.86 µM.

Which results are given for CC(=O)N/C(=C/c1ccc(Cl)cc1)C(=O)Nc1ccc(CC(=O)NCc2ccccc2)cc1 [KIM-121V, (E)-2-acetamido-N-(4-(2-(benzylamino)-2-oxoethyl)phenyl)-3-(4-chlorophenyl)acrylamide]?
IC50 ([1]; Homo sapiens): > 100 µM; IC50 ([2]; Homo sapiens): 57.3 µM
